Like-named read-outs stand apart in the source and are kept apart here.
Experiments:
Assay type in all cases: cell-based, human
[1] = tested on: MLC phosphorylation in MDA-MB-231 cells; experiment: MLC phosphorylation in parental MDA-MB-231 breast cancer cells (quantitative western blot); conditions: for EC50: parental MDA-MB-231, 30 minutes treatment, read-out: EC50, inhibition of MLC phosphorylation; for pMLC on western blots at higher concentrations: parental MDA-MB-231, higher concentrations
Procedure: All results are shown as mean ± standard error of n = 3 independent replicates. […] After fixation and permeabilization, cells were stained with phalloidin to visualize filamentous actin structures and pMLC (S19) primary antibody as indicated.
Cell lysates were prepared as described previously. For pMLC western blots, cells were lysed in a 1% (w/v) SDS, 50 mM Tris pH 7.5 buffer and lysates were passed through QIAshredder columns (Qiagen, 79654). Alternatively, for pMLC western blots lysates were prepared in lysis buffer with 50 mM Tris (pH7.5), 0.5% (w/v) SDS, supplemented with Complete Protease and PhosSTOP inhibitors (Roche). Whole cell lysates were separated by SDS-PAGE, transferred to Protran nitrocellulose membranes (Whatman), probed with primary antibodies and appropriate IR dye-conjugated secondary antibodies. Blots were visualized using a Licor Odyssey according to manufacturer’s instructions. Antibodies used in this study were: MRCKα (611584) from BD Transduction Laboratories; MRCKβ (H00009578-A01) from Abnova; MRCKα/β (MANDM1 6G8) from Glenn Morris (Centre for Inherited Neuromuscular Disease, Oswestry UK); MRCL3/MRLC2/MYL9 (sc-28329) from Santa Cruz Biotechnology; pMLC2 Thr18/Ser19 (3674) from Cell Signaling Technology. ROCK1/2 (07–1458) from Millipore; TetR (Clone 9G9; 631132) from Clontech; α-Tubulin (TU-02; sc-8035) from Santa Cruz Biotechnology; ERK2 from Chris Marshall (Institute of Cancer Research, London UK). Secondary antibodies used were: goat anti-mouse IgG Dylight 800 from Thermo Scientific (35521), goat anti rabbit IgG AlexaFluor 680 from Invitrogen (A12076), goat anti-rabbit IgG IR Dye 800 CW (926–32211) and goat anti-mouse IgG IR Dye 680 (926–68020) were from LI-COR Biosciences.

MDA-MB-231 cells = experiment: Matrigel invasion (scratch wound closure, Incucyte) of MDA-MB-231 cells
Procedure: (§1) (A) MDA-MB-231 human breast cancer cells were plated in 96 well plates, then 24 hours later a ~800 μm scratch wound was created. […] All results are shown as mean ± standard error of n ≥ 4 independent replicates. […] Readings were compared to the Alamar Blue metabolism in DMSO treated cells that were used as the viability standard of 100% for each replicate experiment. All results are shown as mean ± standard error of 3 independent replicates.
(§2) MDA-MB-231 cells were plated at 30,000 cells per well in Image Lock 96 well plates (Essen BioScience) in 100 μL complete DMEM medium and after allowing cells to settle for 20 min were incubated overnight at 37°C in 5% CO2 in a humidified incubator. Matrigel (BD Biosciences) was thawed overnight at 4°C, diluted 1:1 with PBS and 100 μL pipetted over cells that had been scratched with the WoundMaker tool (Essen BioScience). Plates were incubated for 1 h, then appropriately diluted drugs added in 100 μL media to achieve final concentrations. Plates were scanned with an Incucyte Zoom (Essen BioSciences) according to manufacturer’s instructions at 3 hour intervals. Cell viability was determined with AlamarBlue (Invitrogen, DAL 1025), which was added to the medium and cells cultured for 6 hours. Absorbances at 570 nm and at 600 nm were measured to assess metabolic activity.

MDA MB 231 cells = experiment: Alamar Blue cell viability, MDA-MB-231 cells; conditions: 24 hours
Procedure: as §1, §2
(§3) MDA MB 231 or SCC12 cells were plated in a 96 well plate and cultured for 24 hours. […] Pictures were taken every 3 hours and confluence was measured using the IncuCyte analysis software. AlamarBlue (Invitrogen, DAL 1025) was added to the medium and the cells were cultured for an additional day. Absorbances at 570 nm and at 600 nm were measured to assess cell health.

SCC12 cells [2] = experiment: Alamar Blue cell viability, SCC12 cells; conditions: 2 μM, 24 hours
Procedure: (§4) All results are shown as mean ± standard error of n = 3 independent replicates. […] Readings were compared to the Alamar Blue metabolism in DMSO treated cells that were used as the viability standard of 100% for each replicate experiment. […] (F) Number of invading cells was determined in 5 random fields for each condition for each separate replicate experiment. All results are shown as mean ± standard error of n ≥ 3 independent replicates.
as §3

SCC12 cells [3] = experiment: Cell confluence by Incucyte image analysis, SCC12 cells; conditions: 2 μM, 21 hours
Procedure: as §4, §3

SCC12 cells [4] = experiment: Organotypic collagen invasion of SCC12 cells; conditions: 2 μM, ten days
Procedure: as §4
SCC12 invasion assays were performed essentially as described in [12]. HN-CAF cells were grown for 5 days in a Matrigel-collagen gel, covered with DMEM + 10%FBS medium, and allowed to remodel the matrix. The gel consisted of: 280 μL of DMEM + 10% FBS, 100 μL FBS, 20 μL 1 M Hepes pH 7.5 and approximately 200 μL of Matrigel (BD Biosciences, 354234), 400 μL of collagen type 1 (BD Biosciences, 354249) and 5×10^5 HN-CAF cells. Puromycin was subsequently added to the medium at 10 μg/ml for 3 days to remove HN-CAF cells. The gels were washed in SCC medium 3 times for 2 hours and SCC12 cells were plated on the surface of the gel and left to adhere overnight. […] The gels were fixed overnight in 4% PFA and 1% glutaraldehyde in PBS, washed in PBS and processed for histology.

EC50 (MDA-MB-231 cells; Homo sapiens, MDA-MB-231, 24 h, read-out: EC50, inhibition of Matrigel invasion (wound closure)) [nM] | EC50 (MDA MB 231 cells; Homo sapiens, MDA-MB-231, read-out: EC50, cell viability (Alamar Blue metabolism)) [nM] | SMILES | EC50 [1] [nM] | pMLC on western blots at higher concentrations [1] | inhibition of wound closure (MDA-MB-231 cells; 10 μM) | inhibition of invasion (MDA-MB-231 cells; 30 μM, 24 h) [%] | effect on cell viability (MDA MB 231 cells; 10 μM) | cell viability (Alamar Blue metabolism) versus DMSO (SCC12 cells [2]) | cell confluence (SCC12 cells [3]) | SCC12 invasion into three dimensional collagen matrix (SCC12 cells [4]) | EC50 ([1]; Homo sapiens, 0.5 h) [nM] | inhibition of MDA-MB-231 invasion (MDA-MB-231 cells; 10 μM) | inhibition at 1 µM (MDA-MB-231 cells; Homo sapiens, MDA-MB-231, 1 μM) [%] | effect on cell viability (MDA MB 231 cells; 1 μM)
 |  | C[C@@H](N)[C@H]1CC[C@H](C(=O)Nc2ccncc2)CC1 [Y27632, reference compound] | 407 | unable to completely inhibit pMLC | ~ 40% | ≤ 50 | no effect on cell viability | did not differ from DMSO standard values | did not significantly differ between treatments | did not significantly affect |  |  |  | 
440 | > 10000 | O=C(Nc1cn[nH]c1-c1ccccn1)c1nn(C2CCNCC2)cc1Cl [BDP5290, 4-chloro-1-(4-piperidyl)-N-[5-(2-pyridyl)-1H-pyrazol-4-yl]pyrazole-3-carboxamide] |  | reduced pMLC to undetectable levels |  |  |  | did not differ from DMSO standard values | did not significantly differ between treatments | profound effect | 316 | virtually complete inhibition | > 60 | no effect on cell viability

Source: publication PMC4195943, “A novel small-molecule MRCK inhibitor blocks cancer cell invasion” (Cell Communication and Signaling : CCS, 2014)
